Test results reported in article PMC3701070 (PLoS ONE, 2013).

Tests used:
PKD2 (h) = target: T1, PKD2 (h) (Homo sapiens, UniProt Q9BZL6); test: Kinase panel (Millipore) enzyme activity; format: biochemical
T1 construct: purchased Millipore

KYSE-30 = test: Cell growth assay; format: cell-based; conditions: Homo sapiens, 72 h; KYSE-30, RAF WT, RAS WT, 3-day; read-out: gIC50
Procedure, shortened: (§1)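 Growth was quantified by CellTiter-Glo luminescent ATP read-out, taken at t = 0 and again at 72 h. Growth-inhibition IC50 (gIC50) values were derived from these readings.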

BC-3 = test: Cell growth assay; format: cell-based; conditions: Homo sapiens, 72 h; BC-3, RAF WT, RAS WT, 3-day; read-out: gIC50
Procedure, shortened: as §1

BFTC-905 = test: Cell growth assay; format: cell-based; conditions: Homo sapiens, 72 h; BFTC-905, RAF WT, NRAS(Q61L), 3-day; read-out: gIC50
Procedure, shortened: as §1

SK-N-F1 = test: Cell growth assay; format: cell-based; conditions: Homo sapiens, 72 h; SK-N-F1, RAF WT, RAS WT, 3-day; read-out: gIC50
Procedure, shortened: as §1

NCI-N87 = test: Cell growth assay; format: cell-based; conditions: Homo sapiens, 72 h; NCI-N87, RAF WT, RAS WT, 3-day; read-out: gIC50
Procedure, shortened: as §1

PC-3 = test: Cell growth assay; format: cell-based; conditions: Homo sapiens, 72 h; PC-3, RAF WT, RAS WT, 3-day; read-out: gIC50
Procedure, shortened: as §1

HOS = test: Cell growth assay; format: cell-based; conditions: Homo sapiens, 72 h, RAF WT, RAS WT, 3-day, read-out: gIC50
Procedure, shortened: as §1

NCI-H187 = test: Cell growth assay; format: cell-based; conditions: Homo sapiens, 72 h; NCI-H187, RAF WT, RAS WT, 3-day; read-out: gIC50
Procedure, shortened: as §1

ST486 = test: Cell growth assay; format: cell-based; conditions: Homo sapiens, 72 h; ST486, RAF WT, RAS WT, 3-day; read-out: gIC50
Procedure, shortened: as §1

KM-12 = test: Cell growth assay; format: cell-based; conditions: Homo sapiens, KM12, 72 h; KM-12, RAF WT, RAS WT, 3-day; read-out: gIC50
Procedure, shortened: as §1

A204 = test: Cell growth assay; format: cell-based; conditions: Homo sapiens, 72 h; A204, RAF WT, RAS WT, 3-day; read-out: gIC50
Procedure, shortened: as §1

Colo 205 = test: Cell growth assay; format: cell-based; conditions: Homo sapiens, 72 h; Colo 205, BRAF(V600E), RAS WT, 3-day; read-out: gIC50
Procedure, shortened: as §1

SCC-9 = test: Cell growth assay; format: cell-based; conditions: Homo sapiens, 72 h; SCC-9, RAF WT, RAS WT, 3-day; read-out: gIC50
Procedure, shortened: as §1

EKVX = test: Cell growth assay; format: cell-based; conditions: Homo sapiens, 72 h, RAF WT, RAS WT, 3-day, read-out: gIC50
Procedure, shortened: as §1

NCI-H82 = test: Cell growth assay; format: cell-based; conditions: Homo sapiens, 72 h; NCI-H82, RAF WT, RAS WT, 3-day; read-out: gIC50
Procedure, shortened: as §1

Molt-4 = test: Cell growth assay; format: cell-based; conditions: Homo sapiens, 72 h; Molt-4, RAF WT, RAS WT, 3-day; read-out: gIC50
Procedure, shortened: as §1

OE-21 = test: Cell growth assay; format: cell-based; conditions: Homo sapiens, OE21, 72 h; OE-21, RAF WT, RAS WT, 3-day; read-out: gIC50
Procedure, shortened: as §1

A673 = test: Cell growth assay; format: cell-based; conditions: Homo sapiens, 72 h; A673, BRAF(V600E), RAS WT, 3-day; read-out: gIC50
Procedure, shortened: as §1

C32TG = test: Cell growth assay; format: cell-based; conditions: Homo sapiens, 72 h, BRAF(V600E), RAS WT, 3-day, read-out: gIC50
Procedure, shortened: as §1

CAL-62 = test: Cell growth assay; format: cell-based; conditions: Homo sapiens, 72 h; CAL-62, RAF WT, RAS WT, 3-day; read-out: gIC50
Procedure, shortened: as §1

BC-1 = test: Cell growth assay; format: cell-based; conditions: Homo sapiens, BC1, 72 h; BC-1, RAF WT, RAS WT, 3-day; read-out: gIC50
Procedure, shortened: as §1

SK-N-AS = test: Cell growth assay; format: cell-based; conditions: Homo sapiens, 72 h, RAF WT, NRAS(Q61K), 3-day, read-out: gIC50
Procedure, shortened: as §1

Hs746.T = test: Cell growth assay; format: cell-based; conditions: Homo sapiens, Hs746T, 72 h, RAF WT, RAS WT, 3-day, read-out: gIC50
Procedure, shortened: as §1

[1] = test system: Human Foreskin Fibroblasts (HFF, wild-type BRAF); test: Cell cycle analysis; format: cell-based; conditions: concentrations up to 10 µM
Method: Cells were permeabilized, DNA was stained with propidium iodide, and samples were read on a BD LSRII flow cytometer. Data were analyzed using the cell cycle platform of FlowJo v6.1.1 software.
Cell cycle phases are shown in stacked format as a percentage of the total population. […] (PPTX) Click here for additional data file.

T1 sequence (Q9BZL6 whole entry): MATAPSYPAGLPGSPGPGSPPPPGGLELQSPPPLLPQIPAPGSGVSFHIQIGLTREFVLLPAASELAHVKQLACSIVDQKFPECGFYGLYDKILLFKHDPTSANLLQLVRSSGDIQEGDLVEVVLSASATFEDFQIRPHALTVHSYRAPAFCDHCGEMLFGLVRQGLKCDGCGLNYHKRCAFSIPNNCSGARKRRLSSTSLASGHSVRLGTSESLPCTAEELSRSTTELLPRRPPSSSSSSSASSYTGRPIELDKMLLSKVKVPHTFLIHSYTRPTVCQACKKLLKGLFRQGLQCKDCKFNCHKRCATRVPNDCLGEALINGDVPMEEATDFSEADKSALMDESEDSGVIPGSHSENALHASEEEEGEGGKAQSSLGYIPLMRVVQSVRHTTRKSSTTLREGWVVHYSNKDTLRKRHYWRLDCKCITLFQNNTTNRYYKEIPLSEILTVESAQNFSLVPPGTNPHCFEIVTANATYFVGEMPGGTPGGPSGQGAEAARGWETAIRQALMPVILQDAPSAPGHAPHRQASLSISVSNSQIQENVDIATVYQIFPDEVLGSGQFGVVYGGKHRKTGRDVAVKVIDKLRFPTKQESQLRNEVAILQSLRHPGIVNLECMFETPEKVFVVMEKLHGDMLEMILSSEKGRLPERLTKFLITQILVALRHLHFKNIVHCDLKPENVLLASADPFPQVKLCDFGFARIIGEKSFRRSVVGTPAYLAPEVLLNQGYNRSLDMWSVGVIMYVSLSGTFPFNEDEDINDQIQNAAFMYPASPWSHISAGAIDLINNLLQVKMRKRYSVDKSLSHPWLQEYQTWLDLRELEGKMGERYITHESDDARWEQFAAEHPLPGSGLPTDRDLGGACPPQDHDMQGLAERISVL

## CC(C)(C)c1nc(-c2cccc(NS(=O)(=O)c3c(F)cccc3F)c2F)c(-c2ccnc(N)n2)s1 [dabrafenib]
PKD2 (h)
  IC50: 0.057 µM
KYSE-30
  IC50: > 10 µM
BC-3
  IC50: 0.277 µM
BFTC-905
  IC50: > 10 µM
SK-N-F1
  IC50: > 10 µM
NCI-N87
  IC50: > 10 µM
PC-3
  IC50: > 10 µM
HOS
  IC50: > 10 µM
NCI-H187
  IC50: > 10 µM
ST486
  IC50: > 10 µM
KM-12
  IC50: > 10 µM
A204
  IC50: > 10 µM
Colo 205
  IC50: 0.007 µM
SCC-9
  IC50: > 10 µM
EKVX
  IC50: > 10 µM
NCI-H82
  IC50: > 10 µM
Molt-4
  IC50: > 10 µM
OE-21
  IC50: > 10 µM
A673
  IC50: > 10 µM
C32TG
  IC50: 0.001 µM
CAL-62
  IC50: > 10 µM
BC-1
  IC50: 0.704 µM
SK-N-AS
  IC50: > 10 µM
Hs746.T
  IC50: > 10 µM
[1]
  effect on cell cycle: unaffected
